Data set [1] has as its target Sodium-dependent dopamine transporter (Rattus norvegicus, UniProt P23977). Put plainly: Displacement of [125I]PE2I from rat DAT. Background: Displacement assays read how much labelled ligand stays bound in the presence of the test substance.
Data set [2] is described as follows: Ratio of drug uptake in cerebellum to putamen in cynomolgus monkey by GBR-12909 displacement assay. Particulars: in vivo. Details: species or system Macaca fascicularis.
Data set [3] is described as follows: Ratio of drug uptake in cerebellum to putamen in cynomolgus monkey at 59 MBq after 105 mins. Particulars: in vivo, 1.75 h. Format: ADME, Macaca fascicularis.
The subject of data set [4] is Plasma. Briefly: Metabolic stability in cynomolgus monkey venous plasma assessed as compound recovery by radio-HPLC. Format: ADME, cell-free, Macaca fascicularis.
Data set [5] in a line: Ratio of drug uptake in cerebellum to caudate in cynomolgus monkey by GBR-12909 displacement assay. Particulars: in vivo. Details: species or system Macaca fascicularis.
Data set [6] can be described thus: Ratio of drug uptake in cerebellum to caudate in cynomolgus monkey at 59 MBq after 105 mins. The data set is classed as ADME, Macaca fascicularis. Particulars: in vivo, 1.75 h.
Data set [7] concerns Brain. Briefly: Drug uptake in cynomolgus monkey brain at 59 MBq after 13 mins. Format: ADME, tissue-based, Macaca fascicularis. Particulars: in vivo.

The source of these data is ChEMBL document CHEMBL1153065, “Synthesis, radiolabeling and preliminary in vivo evaluation of [18F]FE-PE2I, a new probe for the dopamine transporter” (Bioorg Med Chem Lett, 2009).

Sodium-dependent dopamine transporter, sequence (P23977 whole entry): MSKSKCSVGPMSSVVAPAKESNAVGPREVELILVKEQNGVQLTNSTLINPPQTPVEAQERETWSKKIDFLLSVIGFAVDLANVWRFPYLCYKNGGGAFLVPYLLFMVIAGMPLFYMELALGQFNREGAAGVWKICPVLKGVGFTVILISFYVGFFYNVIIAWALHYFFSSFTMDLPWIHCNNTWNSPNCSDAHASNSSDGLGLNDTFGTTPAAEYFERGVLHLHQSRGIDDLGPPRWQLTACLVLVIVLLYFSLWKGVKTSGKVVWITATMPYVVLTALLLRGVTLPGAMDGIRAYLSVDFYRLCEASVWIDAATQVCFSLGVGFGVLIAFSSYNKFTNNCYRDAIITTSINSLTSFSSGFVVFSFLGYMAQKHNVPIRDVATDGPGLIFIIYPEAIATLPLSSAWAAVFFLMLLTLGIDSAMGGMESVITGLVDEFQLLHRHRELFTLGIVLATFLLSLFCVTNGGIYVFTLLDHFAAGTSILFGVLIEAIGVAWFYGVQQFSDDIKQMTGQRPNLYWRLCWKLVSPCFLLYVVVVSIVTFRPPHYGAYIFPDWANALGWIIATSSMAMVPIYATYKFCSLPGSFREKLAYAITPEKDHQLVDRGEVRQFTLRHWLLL

In data set [1], `COC(=O)[C@H]1[C@@H](c2ccc(C)cc2)C[C@@H]2CC[C@H]1N2C/C=C/I` came in with a Ki of 16 nM.

As to `Cc1ccc([C@H]2C[C@@H]3CC[C@H]([C@H]2C(=O)OCC[18F])N3C/C=C/I)cc1`, the Ratio turned out to be 1.3 in data set [2], 7.9 in data set [3], 1.4 in data set [5] and 7.5 in data set [6]. Further, the Stability in data set [4] is 91%. In data set [7], the SUV is given as 540%.

Regarding `Cc1ccc([C@H]2C[C@@H]3CC[C@H]([C@H]2C(=O)OCCF)N3C/C=C/I)cc1`, in data set [1], the Ki was 12 nM.

One may read the Ki as a dissociation constant, usually derived from enzyme kinetics or from competition with a known ligand.
